Like-named read-outs stand apart in the source and are kept apart here.
Legend:
[1] = target: HDAC1 (Homo sapiens, UniProt Q13547); experiment: HDAC biochemical activity measurement (fluorescent substrate deacetylation);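 also: fluorogenic acetyl-lysine substrate (20 µM) deacetylated by HDAC1, then developer releases fluorophore read at 360 nm excitation and 460 nm emission, inhibitor incubated 30 min at 37 °C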
[2] = target: HDAC2 (Homo sapiens, UniProt Q92769); experiment: as above; settings: 37° C. 30 minutes;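 also: HDAC2 enzyme with an acetyl-lysine fluorescent substrate, then developer added, fluorescence read at excitation 360 nm and emission 460 nm, inhibition measured across several compound concentrations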
[3] = target: T1, HDAC8 (Homo sapiens, UniProt Q9BY41); experiment: as above; settings: 37° C. 30 minutes
T1 sequence (Q9BY41 1-377): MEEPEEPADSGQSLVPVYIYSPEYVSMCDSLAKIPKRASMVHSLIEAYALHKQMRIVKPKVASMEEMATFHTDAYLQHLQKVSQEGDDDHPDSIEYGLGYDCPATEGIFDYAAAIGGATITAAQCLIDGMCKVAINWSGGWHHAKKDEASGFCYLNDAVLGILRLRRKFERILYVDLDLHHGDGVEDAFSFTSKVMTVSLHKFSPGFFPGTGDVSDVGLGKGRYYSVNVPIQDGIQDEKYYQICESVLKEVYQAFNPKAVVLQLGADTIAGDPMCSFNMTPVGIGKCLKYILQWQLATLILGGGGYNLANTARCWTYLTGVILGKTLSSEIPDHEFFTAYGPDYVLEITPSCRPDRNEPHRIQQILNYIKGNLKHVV

[4] = test system: A549 (human lung cancer cells); experiment: MTT cancer cell growth inhibition; type: cell-based; settings: MTT, 72 hours incubation, read-out: GI50 A54
Method in brief: (§1)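 72 h exposure, final drug 10^−5–10^−10 M, triplicate wells; 1500 cells/well plated the day before; medium DMEM or 1640 + 10% FBS; 37° C./5% CO2. MTT (5 mg/ml stock) 4 h, DMSO solubilisation, A570 → % viability → GI50.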

[5] = test system: BGC-823 (human gastric cancer cells); experiment: MTT cancer cell growth inhibition; type: cell-based; settings: MTT, 72 hours incubation, read-out: GI50 BG
Method in brief: as §1

[6] = test system: DU145 (human prostate cancer cells); experiment: MTT cancer cell growth inhibition; type: cell-based; settings: MTT, 72 hours incubation, read-out: GI50 Du1
Method in brief: as §1

[7] = test system: HT1080 (human fibrosarcoma cells); experiment: MTT cancer cell growth inhibition; type: cell-based; settings: MTT, 72 hours incubation, read-out: GI50 HT1
Method in brief: as §1

[8] = test system: Hela (human cervical cancer cells); experiment: MTT cancer cell growth inhibition; type: cell-based; settings: MTT, 72 hours incubation, read-out: GI50 Hela
Method in brief: as §1

[9] = test system: MCF-7 (human breast cancer cells); experiment: MTT cancer cell growth inhibition; type: cell-based; settings: 72 hours incubation, read-out: GI50 MCF
Method in brief: as §1

[10] = test system: MOLT-4 (human acute lymphoblastic leukemia cells); experiment: MTT cancer cell growth inhibition; type: cell-based; settings: MTT, 72 hours incubation, read-out: GI50 Mol
Method in brief: as §1

[11] = test system: PANC-1 (Pac-1, human pancreatic cancer cells); experiment: MTT cancer cell growth inhibition; type: cell-based; settings: MTT, 72 hours incubation, read-out: GI50 PAN
Method in brief: as §1

[12] = test system: U937 (human leukemia cells); experiment: MTT cancer cell growth inhibition; type: cell-based; settings: MTT, 72 hours incubation, read-out: GI50 U93
Method in brief: as §1

[13] = test system: lncap (prostate cancer cells); experiment: MTT cancer cell growth inhibition; type: cell-based; settings: MTT, 72 hours incubation, read-out: GI50 lnca
Method in brief: as §1

[14] = target: HDAC3 (Homo sapiens, UniProt O15379); experiment: HDAC biochemical activity measurement (fluorescent substrate deacetylation);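 also: fluorogenic acetyl-lysine substrate (20 µM) deacetylated by HDAC3, then developer added for 15 min at room temperature, release of fluorophore read at excitation 360 nm, emission 460 nm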; settings: read-out: IC50 HDAC3; HDAC3; 37° C. 30 minutes
[15] = target: T2, HDAC11 (Homo sapiens, UniProt Q96DB2); experiment: as above; settings: read-out: IC50 HDAC11; HDAC11; 37° C. 30 minutes;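 also: HDAC11 enzyme acting on an acetyl-lysine fluorogenic substrate, then a developer frees the fluorophore, read at excitation 360 nm and emission 460 nm, IC50 over a compound dilution series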
T2 sequence (Q96DB2 1-347): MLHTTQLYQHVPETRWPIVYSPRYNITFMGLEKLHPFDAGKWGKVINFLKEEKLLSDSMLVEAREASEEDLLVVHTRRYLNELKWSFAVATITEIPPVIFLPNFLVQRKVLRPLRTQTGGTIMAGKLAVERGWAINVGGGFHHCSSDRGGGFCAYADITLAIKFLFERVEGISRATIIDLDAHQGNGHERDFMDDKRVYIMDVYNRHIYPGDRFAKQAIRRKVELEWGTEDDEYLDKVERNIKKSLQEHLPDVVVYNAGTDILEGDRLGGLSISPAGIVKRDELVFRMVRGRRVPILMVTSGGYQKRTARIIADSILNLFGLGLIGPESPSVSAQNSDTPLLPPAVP

[16] = target: T3, HDAC7 (Homo sapiens, UniProt Q8WUI4); experiment: as above; settings: HDAC7; 37° C. 30 minutes;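 also: fluorogenic deacetylation assay using acetyl-lysine substrate at 20 µM, enzyme and compound incubated 30 min at 37 °C, then developer added, fluorescence read at 360/460 nm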
T3 sequence (Q8WUI4 1-952): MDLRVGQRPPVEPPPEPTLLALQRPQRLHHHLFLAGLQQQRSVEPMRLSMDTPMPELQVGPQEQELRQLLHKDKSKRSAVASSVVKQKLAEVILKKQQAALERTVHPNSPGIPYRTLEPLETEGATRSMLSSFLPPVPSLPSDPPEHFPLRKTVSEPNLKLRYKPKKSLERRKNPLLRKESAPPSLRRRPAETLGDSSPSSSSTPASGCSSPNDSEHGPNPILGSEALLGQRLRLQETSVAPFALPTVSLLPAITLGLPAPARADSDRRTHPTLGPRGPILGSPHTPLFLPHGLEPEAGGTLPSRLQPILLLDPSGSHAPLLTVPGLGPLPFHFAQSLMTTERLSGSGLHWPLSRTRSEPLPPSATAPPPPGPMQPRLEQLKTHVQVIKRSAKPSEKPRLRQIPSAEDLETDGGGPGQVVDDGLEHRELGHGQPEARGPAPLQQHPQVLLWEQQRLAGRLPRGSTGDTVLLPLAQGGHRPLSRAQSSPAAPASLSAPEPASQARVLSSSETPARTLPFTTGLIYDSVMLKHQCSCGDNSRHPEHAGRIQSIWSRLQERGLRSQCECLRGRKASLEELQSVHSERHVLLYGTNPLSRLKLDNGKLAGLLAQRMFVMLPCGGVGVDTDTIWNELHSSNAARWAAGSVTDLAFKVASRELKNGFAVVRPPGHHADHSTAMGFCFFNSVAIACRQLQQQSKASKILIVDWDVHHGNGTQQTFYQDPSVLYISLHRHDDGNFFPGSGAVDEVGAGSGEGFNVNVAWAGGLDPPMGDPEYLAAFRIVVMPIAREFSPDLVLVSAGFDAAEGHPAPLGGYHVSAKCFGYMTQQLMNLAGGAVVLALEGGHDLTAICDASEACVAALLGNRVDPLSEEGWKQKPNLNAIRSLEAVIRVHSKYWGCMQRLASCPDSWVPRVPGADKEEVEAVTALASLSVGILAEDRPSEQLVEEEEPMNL

[17] = test system: Bel-7402 (human hepatoma cells); experiment: MTT cancer cell growth inhibition; type: cell-based; settings: MTT, 72 hours incubation, Bel-7402 cells; read-out: GI50 Bel-7402
Method in brief: as §1

[18] = test system: H1975 (non-small cell lung adenocarcinoma); experiment: MTT cancer cell growth inhibition; type: cell-based; settings: MTT, 72 hours incubation, H1975 cells; read-out: GI50 H1975
Method in brief: as §1

[19] = test system: HCC827 (human non-small cell lung cancer cells); experiment: MTT cancer cell growth inhibition; type: cell-based; settings: MTT, 72 hours incubation, HCC827 cells; read-out: GI50 HCC827
Method in brief: as §1

[20] = test system: Huh-7 (human hepatoma cells); experiment: MTT cancer cell growth inhibition; type: cell-based; settings: MTT, 72 hours incubation, Huh-7 cells; read-out: GI50 Huh-7
Method in brief: as §1

[21] = test system: K562 (human leukemia cells); experiment: MTT cancer cell growth inhibition; type: cell-based; settings: MTT, 72 hours incubation, K562 cells; read-out: GI50 K562
Method in brief: as §1

[22] = test system: KBM-5 (human chronic myelogenous leukemia); experiment: MTT cancer cell growth inhibition; type: cell-based; settings: MTT, 72 hours incubation, KBM-5 cells; read-out: GI50 KBM-5
Method in brief: as §1

[23] = test system: KBM5-T315I (human chronic myelogenous leukemia); experiment: MTT cancer cell growth inhibition; type: cell-based; settings: MTT, 72 hours incubation, KBM5-T315I cells; read-out: GI50 KBM5-T315I
Method in brief: as §1

[24] = test system: MDA-MB-231 (breast cancer cells); experiment: MTT cancer cell growth inhibition; type: cell-based; settings: read-out: GI50 MDA-MB-231; MTT, 72 hours incubation, MDA-MB-231 cells
Method in brief: as §1

[25] = test system: N-87 (human gastric cancer cells); experiment: MTT cancer cell growth inhibition; type: cell-based; settings: MTT, 72 hours incubation, N-87 cells; read-out: GI50 N-87
Method in brief: as §1

[26] = test system: SGC-7901 (human gastric cancer cells); experiment: MTT cancer cell growth inhibition; type: cell-based; settings: MTT, 72 hours incubation, SGC-7901 cells; read-out: GI50 SGC-7901
Method in brief: as §1

[27] = HDAC1, 37° C. 30 minutes, read-out: IC50 HDAC1

HDAC2, sequence (Q92769 whole entry, species assumed): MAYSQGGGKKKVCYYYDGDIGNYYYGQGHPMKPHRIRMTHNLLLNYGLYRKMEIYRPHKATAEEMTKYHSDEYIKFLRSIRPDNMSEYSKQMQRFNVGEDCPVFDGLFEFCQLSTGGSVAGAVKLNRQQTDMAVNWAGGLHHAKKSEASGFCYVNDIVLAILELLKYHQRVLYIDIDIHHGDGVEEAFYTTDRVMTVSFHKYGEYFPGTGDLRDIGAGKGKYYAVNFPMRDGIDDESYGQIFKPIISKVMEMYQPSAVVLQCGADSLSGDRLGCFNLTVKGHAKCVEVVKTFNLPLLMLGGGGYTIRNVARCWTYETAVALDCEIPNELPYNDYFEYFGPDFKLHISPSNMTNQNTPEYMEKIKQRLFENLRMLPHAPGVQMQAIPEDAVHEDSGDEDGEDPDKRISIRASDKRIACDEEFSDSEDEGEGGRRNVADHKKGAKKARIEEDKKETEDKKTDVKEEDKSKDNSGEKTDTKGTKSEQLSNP
HDAC1, sequence (Q13547 whole entry, species assumed): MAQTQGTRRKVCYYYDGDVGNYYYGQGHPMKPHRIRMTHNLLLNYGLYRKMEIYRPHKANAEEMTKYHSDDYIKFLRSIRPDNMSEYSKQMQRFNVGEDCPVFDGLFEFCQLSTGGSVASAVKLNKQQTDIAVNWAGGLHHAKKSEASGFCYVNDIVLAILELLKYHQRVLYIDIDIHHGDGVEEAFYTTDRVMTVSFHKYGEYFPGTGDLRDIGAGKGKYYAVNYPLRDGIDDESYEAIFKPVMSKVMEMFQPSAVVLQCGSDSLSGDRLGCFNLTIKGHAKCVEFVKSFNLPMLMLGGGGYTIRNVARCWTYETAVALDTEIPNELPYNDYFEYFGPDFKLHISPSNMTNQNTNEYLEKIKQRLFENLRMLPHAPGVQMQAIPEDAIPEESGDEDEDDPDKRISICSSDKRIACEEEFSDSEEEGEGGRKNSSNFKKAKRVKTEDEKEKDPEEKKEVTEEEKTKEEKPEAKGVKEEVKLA
HDAC3, sequence (O15379 whole entry, species assumed): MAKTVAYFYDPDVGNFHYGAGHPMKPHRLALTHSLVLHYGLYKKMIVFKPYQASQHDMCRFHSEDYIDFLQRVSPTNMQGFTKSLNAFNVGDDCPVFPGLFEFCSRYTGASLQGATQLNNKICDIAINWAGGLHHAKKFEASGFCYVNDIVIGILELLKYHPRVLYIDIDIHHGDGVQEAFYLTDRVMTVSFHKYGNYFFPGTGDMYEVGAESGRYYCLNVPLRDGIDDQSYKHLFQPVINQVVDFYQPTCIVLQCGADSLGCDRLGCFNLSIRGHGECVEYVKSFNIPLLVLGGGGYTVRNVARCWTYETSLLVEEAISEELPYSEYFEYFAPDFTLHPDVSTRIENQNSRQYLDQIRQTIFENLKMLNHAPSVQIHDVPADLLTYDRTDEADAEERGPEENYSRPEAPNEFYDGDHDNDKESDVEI
HDAC3, sequence (Q9Y618 395-489 partner limits assumed, species assumed): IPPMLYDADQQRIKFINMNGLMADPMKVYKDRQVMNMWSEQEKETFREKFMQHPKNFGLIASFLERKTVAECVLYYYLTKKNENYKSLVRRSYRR

SMILES | IC50 [1, 27] [µM] | IC50 [2] [µM] | IC50 [3] [µM] | IC50 [14] [µM] | IC50 [15] [µM] | IC50 HDAC7 [16] | GI50 ([4]; A549 cells) [µM] | GI50 ([5]; BGC-823 cells) [µM] | GI50 [17] [µM] | GI50 ([6]; DU145 cells) [µM] | GI50 [18] [µM] | GI50 [19] [µM] | GI50 ([7]; HT1080 cells) [µM] | GI50 ([8]; Hela cells) [µM] | GI50 [20] [µM] | GI50 [21] [µM] | GI50 [22] [µM] | GI50 [23] [µM] | GI50 ([9]; MCF-7 cells) [µM] | GI50 [24] [µM] | other results
C/C=C1\NC(=O)c2cc(F)cc(n2)CNC(=O)C[C@@H](/C=C/CCSC(C)=O)OC(=O)[C@H](C(C)C)NC1=O [Compound 49] | 0.016 | 0.046 | 0.038 | 0.048 | 0.073 | – | – | – | – | – | – | – | – | – | – | – | – | – | – | – | IC50 ([1]; Table 3, column C, read-out: IC50 HDAC1, C (six-membered ring with substituents)): 0.016 µM; GI50 [4]: 0.06 µM; GI50 [5]: 0.07 µM; GI50 [6]: 0.01 µM; GI50 [7]: 0.07 µM; GI50 [8]: 0.08 µM; GI50 [9]: 0.05 µM; GI50 [10]: 0.02 µM; GI50 [11]: 0.07 µM; GI50 [12]: 0.03 µM; GI50 [13]: 0.02 µM
C/C=C1\NC(=O)c2nc(ccc2SC)CNC(=O)C[C@@H](/C=C/CCSC(C)=O)OC(=O)[C@H](C)NC1=O [Compound 213] | – | 0.034 | – | – | 0.087 | no activity | 0.07 | 0.03 | 0.053 | 0.02 | 0.076 | 0.028 | 0.02 | 0.05 | 0.035 | 0.028 | 0.078 | 0.054 | 0.09 | 0.037 | GI50 ([10]; MOLT-4 cells): 0.04 µM; GI50 [25]: 0.042 µM; GI50 ([11]; PANC-1 cells): 0.08 µM; GI50 [26]: 0.058 µM; GI50 ([12]; U937 cells): 0.07 µM; GI50 ([13]; lncap cells): 0.07 µM
C/C=C1\NC(=O)c2ccc(SC)c(n2)CNC(=O)C[C@@H](/C=C/CCSC(C)=O)OC(=O)[C@H](C)NC1=O [Compound 215] | 0.066 | – | – | – | – | no activity | 0.05 | 0.04 | 0.019 | 0.03 | 0.037 | 0.015 | 0.02 | 0.02 | 0.065 | 0.048 | 0.025 | 0.042 | 0.03 | 0.047 | GI50 ([10]; MOLT-4 cells): 0.07 µM; GI50 [25]: 0.017 µM; GI50 ([11]; PANC-1 cells): 0.04 µM; GI50 [26]: 0.048 µM; GI50 ([12]; U937 cells): 0.09 µM; GI50 ([13]; lncap cells): 0.1 µM
C/C=C1\NC(=O)c2ccc(F)c(n2)CNC(=O)C[C@@H](/C=C/CCSC=O)OC(=O)[C@H](C(C)C)NC1=O [Example 53] | 0.084 | 0.043 | 0.026 | 0.029 | 0.105 | no activity | – | – | – | – | – | – | – | – | – | – | – | – | – | – | –
